# Laboratory results published in PubChem BioAssay AID1918958 (Molecular Pharmacology Branch, DTP, NCI, 2023).
# Several values for one entry are separate records, joined by “and”; a condition that tells them apart may be missing. Equal values may be shown once.
# Tested on: NCI-H196 complex spheroid viability
# Test: Anticancer human tumor NCI-H196 cell line growth inhibition [LSD1];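 further: spheroids exposed to agents for 7 days before readout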;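 on viability, T/C: 100% = DMSO vehicle control viability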
# Settings: for viability, T/C: stronger effect = lower value
# Text: Multicellular complex tumor spheroid response to LSD1 Inhibitor Iadademstat in combination with a variety of drugs and investigational agents in selected tumor cell lines
# The current study was undertaken to assess response to LSD1 inhibitors in combination with standard-of-care drugs and investigational agents in solid tumor complex spheroid models as well as in the K-562 leukemia. Complex spheroids include a stromal component modeled by human endothelial cells (HUVEC) and fibroblasts modeled by human mesenchymal stem cells (MSCs). The concentration ranges selected for each drug and investigational agent were based upon clinically achievable concentrations if the clinical Cmax of the agent was known.
# Compounds. The drugs and investigational agents used in this study are listed on Table 1. All of the agents used, including staurosporine (NSC755774) and gemcitabine (NSC613327), were obtained from the Developmental Therapeutics Program, NCI. FDA-approved anticancer drugs are available from the NCI at http://dtp.nci.nih.gov/branches/dscb/oncology_drugset_explanation.html. Drugs and investigational agents were >95% pure by proton nuclear magnetic resonance (NMR) and liquid chromatography/mass spectrometry (LC/MS). Stock solutions were prepared at 400x in DMSO, stored at -70 degrees C, and diluted in fresh medium prior to their use. The final concentration of DMSO in cell culture wells never exceeded 0.25% (v/v). The FDA-approved anticancer drug set is available from the Developmental Therapeutics Program at https://dtp.cancer.gov/organization/dscb/obtaining/available_plates.htm. All drugs and investigational agents were tested over a range starting from a high concentration at or near the clinical Cmax and decreasing in half-log increments. If the clinical Cmax for an agent had not been determined, the highest concentration tested was 10 microM.
# Cell Lines. The patient-derived cancer cell (PDC) lines: 292921-168-R-J2-PDC, K24384-001-R-PDC, and 521955-158-R2-J5-PDC pancreatic carcinomas, 556581-035-R-J1 ovarian carcinoma, 324938-238-R-J1-PDC, 855422-203-R-J1-PDC and 883617-216-R-J1-PDC urothelial bladder carcinomas, 743489-274-T-PDC renal cell carcinoma, 138582-R-J1 Merkel cell tumor, K60290-347-R-J1 and K57222-313-R-J1-PDC glioblastomas, 653999-131-R-J2-PDC, LG0703-F948-PDC, and 349418-098-R-PDC non-small cell lung carcinomas, 885512-296-R-J2-PDC, 171881-019-R-J1-PDC breast carcinomas and 186277-243-T-J2-PDC and 233499-124-R-J2-PDC colon carcinomas were obtained from the NCI Patient-Derived Models Repository (PDMR, https://pdmr.cancer.gov). The established cell lines NCI/ADR-RES (RRID:CVCL_14520 and OVCAR-5 (RRID:CVCL_1628) ovarian carcinomas, 786-O (RRID:CVCL_1051) and A498 (RRID:CVCL_A498) renal cell carcinoma, NCI-H211 (ATCC, cat. CRL-5824; RRID:CVCL_1529), NCI-H196 (ATCC, cat. CRL-5823, RRID:CVCL_1509), SW 1271 (ATCC, cat. CRL-2177, RRID:CVCL_1716) and NCI-H1876 (ATCC, cat. CRL-5902, RRID:CVCL_1503) small cell lung carcinomas, MDA-MB-231 (RRID:CVCL_0062) and MDA-MB-468 (RRID:CVCL_0419)breast carcinomas (10-12). Pooled donor human umbilical vein endothelial cells (HUVEC, Lonza, cat. CC-2519) and human mesenchymal stem cells (hMSC, Lonza, cat. PT-2501) were purchased from Lonza (Walkersville, MD).
# Cell Culture. All cells were maintained in an incubator at 37 degrees C and 5% CO2 with 95% humidity. The PDC lines were cultured according to standard operating procedures established by the NCI PDMR (https://pdmr.cancer.gov). Briefly all PDCs were thawed and cultured in Matrigel-coated flasks prepared with a working solution of 1X Ham's F-12 nutrient mix, without supplementation (Invitrogen, Waltham, MA, cat. 11765054), 100 U/mL penicillin-streptomycin (Invitrogen, cat. 15140122), and 2.5% Matrigel (Corning Inc., Corning, NY, cat. 354248) for the first three passages. […]
# [1] = curve of first compound, second compound 0.1 µM
# [2] = curve of first compound, second compound 0.316 µM
# [3] = curve of first compound, second compound 1 µM
# [4] = curve of first compound, second compound 3.16 µM
# [5] = curve of first compound, second compound 10 µM
# [6] = second compound 0.1 µM, first compound 0.00949 µM
# [7] = second compound 0.1 µM, first compound 0.03 µM
# [8] = second compound 0.1 µM, first compound 0.0949 µM
# [9] = second compound 0.1 µM, first compound 0.3 µM
# [10] = second compound 0.1 µM, first compound 0.949 µM
# [11] = second compound 0.1 µM, first compound 3 µM
# [12] = second compound 0.316 µM, first compound 0.00949 µM
# [13] = second compound 0.316 µM, first compound 0.03 µM
# [14] = second compound 0.316 µM, first compound 0.0949 µM
# [15] = second compound 0.316 µM, first compound 0.3 µM
# [16] = second compound 0.316 µM, first compound 0.949 µM
# [17] = second compound 0.316 µM, first compound 3 µM
# [18] = second compound 1 µM, first compound 0.00949 µM
# [19] = second compound 1 µM, first compound 0.03 µM
# [20] = second compound 1 µM, first compound 0.0949 µM
# [21] = second compound 1 µM, first compound 0.3 µM
# [22] = second compound 1 µM, first compound 0.949 µM
# [23] = second compound 1 µM, first compound 3 µM
# [24] = second compound 3.16 µM, first compound 0.00949 µM
# [25] = second compound 3.16 µM, first compound 0.03 µM
# [26] = second compound 3.16 µM, first compound 0.0949 µM
# [27] = second compound 3.16 µM, first compound 0.3 µM
# [28] = second compound 3.16 µM, first compound 0.949 µM
# [29] = second compound 3.16 µM, first compound 3 µM
# [30] = second compound 10 µM, first compound 0.00949 µM
# [31] = second compound 10 µM, first compound 0.03 µM
# [32] = second compound 10 µM, first compound 0.0949 µM
# [33] = second compound 10 µM, first compound 0.3 µM
# [34] = second compound 10 µM, first compound 0.949 µM
# [35] = second compound 10 µM, first compound 3 µM
smiles,measurement,setting,value
O=C(c1cc(Cc2n[nH]c(=O)c3ccccc23)ccc1F)N1CCN(C(=O)C2CC2)CC1 + NC1CC1c1ccc(-c2cccc(O)c2)cc1,IC50,[1],> 10 µM
same,IC50,[2],> 10 µM
same,IC50,[3],> 10 µM
same,IC50,[4],> 10 µM
same,IC50,[5],> 10 µM
same,"viability, T/C","second compound 0.1 µM, first compound 0.0316 µM",85.5%
same,"viability, T/C","second compound 0.1 µM, first compound 0.1 µM",85.3%
same,"viability, T/C","second compound 0.1 µM, first compound 0.316 µM",89.4%
same,"viability, T/C","second compound 0.1 µM, first compound 1 µM",90.4%
same,"viability, T/C","second compound 0.1 µM, first compound 3.16 µM",87.2%
same,"viability, T/C","second compound 0.1 µM, first compound 10 µM",92.3%
same,"viability, T/C","second compound 0.316 µM, first compound 0.0316 µM",98%
same,"viability, T/C","second compound 0.316 µM, first compound 0.1 µM",90.3%
same,"viability, T/C","second compound 0.316 µM, first compound 0.316 µM",86.5%
same,"viability, T/C","second compound 0.316 µM, first compound 1 µM",86.2%
same,"viability, T/C","second compound 0.316 µM, first compound 3.16 µM",91.7%
same,"viability, T/C","second compound 0.316 µM, first compound 10 µM",83%
same,"viability, T/C","second compound 1 µM, first compound 0.0316 µM",90.8%
same,"viability, T/C","second compound 1 µM, first compound 0.1 µM",88.1%
same,"viability, T/C","second compound 1 µM, first compound 0.316 µM",95.8%
same,"viability, T/C","second compound 1 µM, first compound 1 µM",92.1%
same,"viability, T/C","second compound 1 µM, first compound 3.16 µM",87.2%
same,"viability, T/C","second compound 1 µM, first compound 10 µM",78%
same,"viability, T/C","second compound 3.16 µM, first compound 0.0316 µM",90.4%
same,"viability, T/C","second compound 3.16 µM, first compound 0.1 µM",99.3%
same,"viability, T/C","second compound 3.16 µM, first compound 0.316 µM",99.3%
same,"viability, T/C","second compound 3.16 µM, first compound 1 µM",92.3%
same,"viability, T/C","second compound 3.16 µM, first compound 3.16 µM",88.9%
same,"viability, T/C","second compound 3.16 µM, first compound 10 µM",76.7%
same,"viability, T/C","second compound 10 µM, first compound 0.0316 µM",84.9%
same,"viability, T/C","second compound 10 µM, first compound 0.1 µM",93.9%
same,"viability, T/C","second compound 10 µM, first compound 0.316 µM",88.9%
same,"viability, T/C","second compound 10 µM, first compound 1 µM",83%
same,"viability, T/C","second compound 10 µM, first compound 3.16 µM",83%
same,"viability, T/C","second compound 10 µM, first compound 10 µM",80.9%
CC(C)CC(NC(=O)CNC(=O)c1cc(Cl)ccc1Cl)B1OC(=O)CC(CC(=O)O)(C(=O)O)O1 (stereo unspecified),"viability, T/C",compound 0.000316 µM,108% and 104%
same,"viability, T/C",compound 0.001 µM,113% and 107%
same,"viability, T/C",compound 0.00316 µM,103% and 92%
same,"viability, T/C",compound 0.01 µM,83.3% and 57.1%
same,"viability, T/C",compound 0.0316 µM,34.6% and 20.3%
same,"viability, T/C",compound 0.1 µM,6.61% and 4.84%
same,IC50,curve of compound,0.022 µM and 0.0126 µM
COc1cc(C2c3cc4c(cc3C(OC3OC5COC(C)OC5C(O)C3O)C3COC(=O)C23)OCO4)cc(OC)c1O (stereo unspecified) + NC1CC1c1ccc(-c2cccc(O)c2)cc1,IC50,[1],> 3 µM
same,IC50,[2],> 3 µM
same,IC50,[3],> 3 µM
same,IC50,[4],> 3 µM
same,IC50,[5],> 3 µM
same,"viability, T/C",[6],95.2%
same,"viability, T/C",[7],97%
same,"viability, T/C",[8],109%
same,"viability, T/C",[9],101%
same,"viability, T/C",[10],85.1%
same,"viability, T/C",[11],69.1%
same,"viability, T/C",[12],98.5%
same,"viability, T/C",[13],100%
same,"viability, T/C",[14],105%
same,"viability, T/C",[15],102%
same,"viability, T/C",[16],88.2%
same,"viability, T/C",[17],65.1%
same,"viability, T/C",[18],90.9%
same,"viability, T/C",[19],104%
same,"viability, T/C",[20],117%
same,"viability, T/C",[21],121%
same,"viability, T/C",[22],84.1%
same,"viability, T/C",[23],61.8%
same,"viability, T/C",[24],92.8%
same,"viability, T/C",[25],92.4%
same,"viability, T/C",[26],104%
same,"viability, T/C",[27],91.4%
same,"viability, T/C",[28],76.9%
same,"viability, T/C",[29],53.7%
same,"viability, T/C",[30],90%
same,"viability, T/C",[31],101%
same,"viability, T/C",[32],102%
same,"viability, T/C",[33],90.8%
same,"viability, T/C",[34],78.5%
same,"viability, T/C",[35],59.9%
CC1COCCN1c1cc(C2(S(C)(=N)=O)CC2)nc(-c2ccnc3[nH]ccc23)n1 (stereo unspecified),"viability, T/C",compound 0.0316 µM,96.2% and 97.2%
same,"viability, T/C",compound 0.1 µM,100% and 94.8%
same,"viability, T/C",compound 0.316 µM,91.8% and 98.8%
same,"viability, T/C",compound 1 µM,84.6% and 84.2%
same,"viability, T/C",compound 3.16 µM,77.8% and 76.2%
same,"viability, T/C",compound 10 µM,72.7% and 74.6%
same,IC50,curve of compound,> 10 µM
CC[C@@]1(O)C(=O)OCc2c1cc1n(c2=O)Cc2cc3c(CN(C)C)c(O)ccc3nc2-1,"viability, T/C",compound 0.000316 µM,98.3% and 97.6%
same,"viability, T/C",compound 0.001 µM,99% and 93.1%
same,"viability, T/C",compound 0.00316 µM,95.1% and 99.2%
same,"viability, T/C",compound 0.01 µM,109% and 97.3%
same,"viability, T/C",compound 0.0316 µM,110% and 115%
same,"viability, T/C",compound 0.1 µM,106% and 102%
same,IC50,curve of compound,> 0.1 µM
CCN(c1cc(-c2ccc(CN3CCOCC3)cc2)cc(C(=O)NCc2c(C)cc(C)[nH]c2=O)c1C)C1CCOCC1 + NC1CC1c1ccc(-c2cccc(O)c2)cc1,IC50,[1],> 3 µM
same,IC50,[2],> 3 µM
same,IC50,[3],> 3 µM
same,IC50,[4],> 3 µM
same,IC50,[5],> 3 µM
same,"viability, T/C",[6],93.6%
same,"viability, T/C",[7],91.8%
same,"viability, T/C",[8],98%
same,"viability, T/C",[9],108%
same,"viability, T/C",[10],107%
same,"viability, T/C",[11],118%
same,"viability, T/C",[12],94.5%
same,"viability, T/C",[13],97.8%
same,"viability, T/C",[14],113%
same,"viability, T/C",[15],104%
same,"viability, T/C",[16],110%
same,"viability, T/C",[17],110%
same,"viability, T/C",[18],97.4%
same,"viability, T/C",[19],102%
same,"viability, T/C",[20],102%
same,"viability, T/C",[21],106%
same,"viability, T/C",[22],116%
same,"viability, T/C",[23],112%
same,"viability, T/C",[24],98.4%
same,"viability, T/C",[25],99%
same,"viability, T/C",[26],101%
same,"viability, T/C",[27],102%
same,"viability, T/C",[28],98.9%
same,"viability, T/C",[29],103%
same,"viability, T/C",[30],98.6%
same,"viability, T/C",[31],109%
same,"viability, T/C",[32],104%
same,"viability, T/C",[33],104%
same,"viability, T/C",[34],105%
same,"viability, T/C",[35],92.9%
